Measurements published in PubChem BioAssay (NCI).
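Step 1: Grow cells in 96-well plates. Step 2: Expose to compound for 48 hours at 5 concentrations. Step 3: Interpolate endpoints linearly; if unreached, use highest concentration. Definition used: TGI = concentration required for complete inhibition of growth.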

Tests used:
Assay in all cases: NCI-60 cell line screen, 48 h
U251 CNS = test system: U251 CNS
EKVX NSCLC = test system: EKVX NSCLC
SK-MEL-28 melanoma = test system: SK-MEL-28 melanoma
OVCAR-5 ovarian = test system: OVCAR-5 ovarian
ACHN renal = test system: ACHN renal
CAKI-1 renal = test system: CAKI-1 renal
UO-31 renal = test system: UO-31 renal
HCC-2998 colon = test system: HCC-2998 colon
RPMI-8226 leukemia = test system: RPMI-8226 leukemia
KM12 colon = test system: KM12 colon
HOP-92 NSCLC = test system: HOP-92 NSCLC
SNB-19 CNS = test system: SNB-19 CNS
A549 NSCLC = test system: A549 NSCLC
SN12C renal = test system: SN12C renal
K-562 leukemia = test system: K-562 leukemia
NCI-H460 lung = test system: NCI-H460 lung
SF-268 CNS = test system: SF-268 CNS
NCI-H23 lung = test system: NCI-H23 lung
MALME-3M melanoma = test system: MALME-3M melanoma
SK-OV-3 ovarian = test system: SK-OV-3 ovarian

SMILES	TGI (U251 CNS) [µM]	TGI (EKVX NSCLC) [µM]	TGI (SK-MEL-28 melanoma) [µM]	TGI (OVCAR-5 ovarian) [µM]	TGI (ACHN renal) [µM]	TGI (CAKI-1 renal) [µM]	TGI (UO-31 renal) [µM]	TGI (HCC-2998 colon) [µM]	TGI (RPMI-8226 leukemia) [µM]	TGI (KM12 colon) [µM]	TGI (HOP-92 NSCLC) [µM]	TGI (SNB-19 CNS) [µM]	TGI (A549 NSCLC) [µM]	TGI (SN12C renal) [µM]	TGI (K-562 leukemia) [µM]	TGI (NCI-H460 lung) [µM]	TGI (SF-268 CNS) [µM]	TGI (NCI-H23 lung) [µM]	TGI (MALME-3M melanoma) [µM]	TGI (SK-OV-3 ovarian) [µM]
NC(=O)NC(CC(=O)O)C(=O)O (stereo not drawn)	> 100	> 100	> 100	> 100	> 100	> 100	> 100	> 100	> 100	> 100	> 100	> 100	> 100	> 100	> 100	> 100	> 100	> 100	> 100	–
COc1cc(C2c3cc4c(cc3OC3(O)COC(=O)C23)OCO4)cc(OC)c1OC (stereo not drawn)	> 100	> 100	–	> 100	> 100	> 100	> 100	> 100	> 100	–	–	> 100	> 100	> 100	> 100	> 100	> 100	> 100	> 100	79
CCOc1ccc(C2=C(Cl)c3cc(OC)c(OC)cc3C2Cl)cc1 (stereo not drawn)	39.8	> 100	> 100	–	> 100	> 100	> 100	–	73	–	86.5	> 100	–	> 100	–	> 100	> 100	> 100	> 100	> 100
COc1ccc2c(C)cc(N/N=C/c3sccc3C)nc2c1	51.9	–	35.8	28.1	> 100	–	54.8	25.7	26.6	21.8	47.5	41.6	29.4	20.4	–	–	85.9	33.1	20.8	31.9
CC(=O)Nc1ccc(C2=N/C(=C\c3ccc(Cl)c(Cl)c3)C(=O)O2)cc1	> 100	> 100	> 100	> 100	> 100	> 100	> 100	> 100	> 100	> 100	> 100	> 100	> 100	> 100	> 100	> 100	> 100	> 100	> 100	> 100
COc1ccc(N2C(=O)C3c4[nH]c5ccccc5c4C4CCCCCCCC4C3C2=O)cc1 (stereo not drawn)	> 10	> 10	> 10	> 10	> 10	> 10	> 10	> 10	> 10	> 10	–	> 10	> 10	> 10	> 10	> 10	> 10	> 10	> 10	> 10
COc1cc(C2C(Cl)C(=O)N2NC(=O)c2ccc(NC(C)=O)cc2)cc(Br)c1O (stereo not drawn)	> 100	–	> 100	> 100	> 100	–	> 100	> 100	> 100	> 100	> 100	> 100	> 100	–	> 100	> 100	> 100	> 100	> 100	> 100
CCCCC(NC(=O)CC)C(=O)O (stereo not drawn)	> 100	> 100	> 100	> 100	–	> 100	> 100	> 31.6	> 100	> 100	> 100	> 100	> 100	> 100	> 100	> 100	> 100	> 100	> 100	> 100
CN1C[C@H]2[C@@H](C1=O)[C@H](c1ccc([N+](=O)[O-])cc1)ON2C	> 100	–	> 100	> 100	> 100	> 100	> 100	> 100	> 100	–	> 100	> 100	> 100	> 100	> 100	> 100	–	> 100	–	> 100
